From ChEMBL document CHEMBL1157539, “Thousands of chemical starting points for antimalarial lead identification” (Nature, 2010)

The molecules below were run on Plasmodium falciparum (assay: GSK_TCMDC: Inhibition of Plasmodium falciparum 3D7 in whole erythrocytes, using parasite LDH activity as an index of growth.). Conditions: Plasmodium falciparum, 3D7.
Format: functional, organism-based

Going from `Cc1cccc2nc(-c3ccc(-c4ccc(NC(=O)c5cncn5C)cc4)s3)[nH]c12` to `Cc1cccc2nc(-c3ccc(-c4cccc(CNCCNC(=O)c5ccnn5C)c4)cc3)[nH]c12`, the XC50 falls from 670 nM to 396 nM (1.7-fold).

Going from `COc1ccc2c(C)cc(NCCCN(C)C)nc2c1` to `C=CCc1cccc(C)c1OCCCON1C(=N)N=C(N)NC1(C)C`, the XC50 falls from 1100 nM to 3.2 nM (340-fold).

`CN1CCN(CCCN(Cc2ccc(-c3cccc(CNCc4ccc5c(c4)OCO5)c3)cc2)C(=O)NCCc2ccccc2)CC1` and `CN(C)CCN(Cc1ccccc1-c1ccc(CNCCc2ccccc2)cc1)C(=O)NC1CCCCC1` are within 1.5-fold of each other in XC50: 845 nM for the first, 906 nM for the second.

`Cc1cc(I)ccc1Nc1nc2nonc2nc1Nc1ccc(I)cc1C` and `Cc1ccc(Nc2nccc(Nc3ccc4c(c3)nc(Nc3cc(C(C)(C)C)on3)n4C)n2)cc1S(C)(=O)=O` are within 1.5-fold of each other in XC50: 510 nM for the first, 599 nM for the second.

First: Nc1nc(-c2ccccn2)nc(-n2nc(-c3cccc(C(F)(F)F)c3)cc2N)n1
Second: Cc1nc(N)nc(N)c1OCc1cccc2ccccc12
The XC50 of the first is 14-fold higher: 1040 nM for the first, 72.7 nM for the second.

`O=C1CSc2ccc(CNC3CCN(CCc4c(Cl)cnc5ccc(F)cc45)CC3)nc2N1` and `COc1cc(F)c2nccc([C@@H](O)CN3CCC(NCc4ccc5c(n4)NC(=O)CS5)CC3)c2c1` are within 1.5-fold of each other in XC50: 427 nM for the first, 560 nM for the second.

`CC1CN(c2cnn(C/C=C/c3ccc(NC(=O)c4ccc([N+](=O)[O-])cc4)cc3)c(=O)c2Cl)CC(C)N1` (stereo not drawn) and `O=C(Nc1ccc(-c2ccccc2)cc1)Nc1cccc(Cn2nc(Cl)c(N3CCCNCC3)cc2=O)c1` are within 1.5-fold of each other in XC50: 700 nM for the first, 676 nM for the second.

`CN1CCN(c2nsc3ccc(-c4ccc(OCCN5CCCC5)cc4)cc23)CC1` and `c1ccc(CN2CCCN(c3ccc4c(c3)CCN(Cc3ccc(-c5ncc[nH]5)cc3)CC4)CC2)cc1` are within 1.5-fold of each other in XC50: 826 nM for the first, 762 nM for the second.

Compared with `C=CCOC(=O)N1CCC(CNCc2cccc(-c3ccc(-c4nc5ccccc5[nH]4)s3)c2)C1` (stereo not drawn), `OCC1CCN(Cc2cccc(-c3ccc(-c4nc5cc(C(F)(F)F)ccc5[nH]4)s3)c2)CC1` is 2.2-fold higher in XC50: 272 nM for the first, 588 nM for the second.

`O=C(CCn1c2ccccc2c2ccccc21)NN=Cc1ccco1` and `Cc1cc(NCCC(=O)NCCOc2ccccc2)nc(NCCOc2ccccc2)n1` are within 1.5-fold of each other in XC50: 588 nM for the first, 867 nM for the second.

Compared with `O=C(Nc1ccc(Cl)cc1)Nc1cccc(-c2cccc(-c3nc4cc(C(F)(F)F)ccc4[nH]3)c2)c1`, `FC(F)(F)c1ccc2[nH]c(-c3ccc(-c4ccc(CNCc5ccccc5)cc4)cc3)nc2c1` is 1.6-fold lower in XC50: 227 nM for the first, 143 nM for the second.

`N#Cc1ccc(-c2ccc(C(=O)NCCCCN3CCC(c4ccc5c(c4OCc4ccncc4)CCCC5)CC3)cc2)cc1` and `O=C(Cn1c(CCc2cccc(F)c2F)cc(=O)c2ccccc21)N(CCN1CCCCC1)Cc1ccc(-c2ccc(C(F)(F)F)cc2)cc1` are within 1.5-fold of each other in XC50: 757 nM for the first, 764 nM for the second.

`O=C(CCCCCNC(=O)c1ccc(O)c(-c2ccc(Cl)c(Cl)c2)c1)NCCN1CCOCC1` and `O=C(CCCCCNC(=O)c1ccc(O)c(-c2cccc(C(F)(F)F)c2)c1)NCCN1CCCCC1` are within 1.5-fold of each other in XC50: 830 nM for the first, 888 nM for the second.

First: COc1cc(Cc2cnc(N)nc2N)ccc1OCc1ccc(NC(C)=O)cc1
Second: COc1cc(Cc2cnc(N)nc2N)cc(OCCCCCCC(=O)O)c1OC
The XC50 of the first is 2.5-fold lower: 368 nM for the first, 937 nM for the second.

Going from `COc1ccc(CNC2Cc3ccccc3C2)cc1-c1ccc(S(=O)(=O)NCCN2CCCC2)c(F)c1` to `c1cncc(CCNCc2ccc(-c3ccc(CNC4Cc5ccccc5C4)cc3)cc2)c1`, the XC50 rises from 719 nM to 1090 nM (1.5-fold).

`Cc1[nH]c(/C=C2\C(=O)Nc3ccc(S(=O)(=O)Cc4c(Cl)cccc4Cl)cc32)c(C)c1C(=O)N1CCC[C@@H]1CN1CCCC1` [PHA-665752] and `O=C(c1ccc(-c2cccc(-c3nc4cc(C(F)(F)F)ccc4[nH]3)c2)cc1)N1CCCCC1CN1CCC(O)C1` (stereo not drawn) are within 1.5-fold of each other in XC50: 720 nM for the first, 652 nM for the second.

Compared with `O=[N+]([O-])c1ccc(-n2nc(-c3cccnc3)n(Cc3ccco3)c2=S)c(Cl)c1`, `c1cncc(Oc2ccc(Nc3ccnc4cc(-c5cccc(CNCCN6CCOCC6)c5)ccc34)cc2)c1` is 1.8-fold lower in XC50: 200 nM for the first, 112 nM for the second.

Compared with `Cn1cnc(-c2ccc3c(c2)CCN(CCC2CCC(NC(=O)/C=C/c4ccc(F)cc4)CC2)CC3)c1` (stereo not drawn), `O=C(/C=C/c1ccc(F)cc1)NC1CCC(CCN2CCc3ccccc3CC2)CC1` (stereo not drawn) is 1.5-fold higher in XC50: 904 nM for the first, 1400 nM for the second.

Compared with `CCc1cn(C)c2c(N3CCCC3=O)cc(C(=O)N[C@@H](Cc3ccccc3)[C@H](O)CNC(C)(C)CCCC(C)C)cc12`, `CCc1cn2c3c(cc(C(=O)N[C@@H](Cc4ccccc4)[C@H](O)CNC(C)C)cc13)N(C)S(=O)(=O)C2` is 1.5-fold lower in XC50: 487 nM for the first, 317 nM for the second.

`O=C(COc1ccc(Cl)c(Cl)c1)NCCCCCN1CCCN(C(=O)Nc2cc(Cl)cc(Cl)c2)CC1` and `O=C(/C=C/c1ccc(C(F)(F)F)cc1)NCCCCCN1CCN(C(=O)Nc2ccc(F)c(Cl)c2)CC1` are within 1.5-fold of each other in XC50: 1140 nM for the first, 1210 nM for the second.

Going from `Oc1cccc(C2CCCN(CCc3c[nH]c4ccccc34)C2)c1` (stereo not drawn) to `O=C(NCC1CC1)C1CCN(C(c2ccccc2)c2ccc(Cl)c(Cl)c2)CC1` (stereo not drawn), the XC50 falls from 857 nM to 369 nM (2.3-fold).

First: Cc1cc2c(cc1C(F)(F)F)N(C(=O)Nc1cnc(OCCN(C)C)c(C(F)(F)F)c1)CC2
Second: CC(=O)Nc1ccc(OCCN(Cc2ccccc2C(F)(F)F)c2ccc(C#N)c(C(F)(F)F)c2)c(Cl)c1
The XC50 of the first is 1.6-fold higher: 966 nM for the first, 619 nM for the second.

`N#Cc1cccc(NC(=O)C2=C(CCc3ccc4c(c3)OCO4)NC(=O)NC2c2cccc(C#N)c2)c1` (stereo not drawn) and `CCCc1ccc(NC(=O)c2cccc(CN3CCCN(Cc4cccc(C#N)c4)CC3)c2)cc1` are within 1.5-fold of each other in XC50: 834 nM for the first, 976 nM for the second.

Going from `CCN1CCN(CCCNc2ccnc3cc(Cl)ccc23)CC1` to `C=CCC(C(=O)Nc1ccnc2ccc(OC)cc12)C1CCN(CCCCCCC)CC1` (stereo not drawn), the XC50 rises from 67 nM to 242 nM (3.6-fold).

Going from `CC1(C)N=C(N)N=C(N)N1c1ccc([N+](=O)[O-])cc1` to `CCCCCCCCOc1ccc(N2C(N)=NC(N)=NC2(C)C)cc1`, the XC50 rises from 234 nM to 502 nM (2.1-fold).

Going from `COC(=O)CNC(c1ccccc1)c1cc(Br)ccc1NC(=O)c1ccccc1Br` (stereo not drawn) to `Cc1cc(N2CCCC2)nc(Nc2ccc(NC(=O)Cc3ccccc3)cc2)n1`, the XC50 falls from 988 nM to 606 nM (1.6-fold).

First: CCc1cc2c3c(N)nc(N)nc3ccc2n1C(CC)CC
Second: Nc1nc(N)c2c(ccc3c2ccn3Cc2ccc(Br)cc2)n1
The XC50 of the first is 20-fold higher: 63.7 nM for the first, 3.2 nM for the second.

`COc1ccc(S(=O)(=O)N2CCCc3ccc(Br)cc32)cc1N1CCN(C(=O)C(Cl)(Cl)Cl)CC1` and `Cc1cc(O)cc2c(C3CCN(CC4CCN(C(=O)/C=C/c5ccc(Cl)c(Cl)c5)CC4)CC3)c[nH]c12` are within 1.5-fold of each other in XC50: 809 nM for the first, 1090 nM for the second.

`c1cc(CN2CCN(CCN3CCOCC3)CC2)cc(-c2csc(-c3nc4ccccc4[nH]3)c2)c1` and `Cc1cccc2nc(-c3cccc(-c4cccc(CNCc5ccccc5)c4)c3)[nH]c12` are within 1.5-fold of each other in XC50: 452 nM for the first, 393 nM for the second.

`CN1CCC(N(Cc2ccc(-c3cnc(NCc4ccccc4)nc3)cc2)S(=O)(=O)c2ccccc2)CC1` and `CN(c1ccc2c(c1)nc(NCc1ccccc1)n2C)c1ccnc(Nc2ccc(CS(C)(=O)=O)cc2)n1` are within 1.5-fold of each other in XC50: 777 nM for the first, 841 nM for the second.

`CC(=O)N[C@@H]1c2cc(C(C)=O)ccc2OC(C)(C)[C@@H]1O` and `CCc1ccc(-n2c(=O)c3cccnc3n2CC(=O)NC2CCCC2)cc1` are within 1.5-fold of each other in XC50: 983 nM for the first, 917 nM for the second.

First: CN(Cc1ccc(NC(=O)CCC2CCN(C(=O)/C=C/c3ccc(Cl)c(Cl)c3)CC2)cc1)C1CCOCC1
Second: N#Cc1ccc2c(c1)CCN(CCC1CCC(NC(=O)/C=C/c3ccc(F)c4ccccc34)CC1)CC2 (stereo not drawn)
The XC50 of the first is 2-fold higher: 1730 nM for the first, 844 nM for the second.

`CC1CCN(CCNC(=O)c2ccc3c(=O)n(Cc4ccc(Cl)cc4)c(=S)[nH]c3c2)CC1` and `N#Cc1ccc2c(c1)CCN(CCC1CCC(NC(=O)c3cc4ccc(Cl)cc4[nH]3)CC1)C2` (stereo not drawn) are within 1.5-fold of each other in XC50: 704 nM for the first, 700 nM for the second.

Compared with `COc1ccc(/N=[N+](\[O-])c2ccccc2/[N+]([O-])=N/c2ccc(OC)cc2)cc1`, `CC[C@H]1CN2CC[C@H]1C[C@H]2[C@H](O)c1cc(-c2ccc3ccccc3c2)nc2ccc(OC)cc12` is 9.5-fold lower in XC50: 987 nM for the first, 104 nM for the second.

Compared with `CC[C@@]1(O)C(=O)OCc2c1cc1n(c2=O)Cc2c-1nc1cc3c(cc1c2CN1CCOCC1)OCO3`, `COc1ccc2ncc(Cl)c([C@H](O)CN3CCC(NCc4cc5c(cn4)OCCO5)CC3)c2c1` is 8.3-fold lower in XC50: 965 nM for the first, 116 nM for the second.

First: Cn1cc(CN2CCCC(COC(c3ccc(F)cc3)c3ccc(F)cc3)C2)cn1 (stereo not drawn)
Second: N#Cc1ccnc(-c2ccc(CNC3CCN(CC4Cn5c(=O)ccc6ccc(F)c4c65)CC3)cc2)c1 (stereo not drawn)
The XC50 of the first is 2.1-fold lower: 571 nM for the first, 1220 nM for the second.

`CC(C)(C)OC(=O)NCc1ccc(Nc2nnc(-c3ccc(OCC(=O)NCc4cc(C(F)(F)F)cc(C(F)(F)F)c4)c([N+](=O)[O-])c3)o2)cc1` and `CS(=O)(=O)c1ccc(Nc2ncc(-c3ccc(S(C)(=O)=O)cc3)c(OCC(F)(F)F)n2)cc1` are within 1.5-fold of each other in XC50: 460 nM for the first, 401 nM for the second.

Compared with `COc1ccc2nccc([C@@H](O)CN3CCC(NC(=O)/C=C/c4cc([N+](=O)[O-])ccc4OC)CC3)c2c1`, `C=C[C@H]1CN2CC[C@H]1C[C@H]2[C@H](O)c1cc(/C=C/c2ccc(F)cc2)nc2ccc(OC)cc12` is 7.5-fold lower in XC50: 258 nM for the first, 34.2 nM for the second.

Compared with `Cc1[nH]c(C)c(-c2ccc(OCc3ccccc3C(F)(F)F)nc2)c(=O)c1Br`, `CN(C)c1cc2c(Nc3ccc4nc(Cc5ccccc5)[nH]c4c3)ncnc2cn1` [GW301888X] is 70-fold higher in XC50: 16.4 nM for the first, 1140 nM for the second.

First: CCC1CCc2cc(N)cc(-c3nc4c(c(C)nn4CC)c(=O)[nH]3)c2O1 (stereo not drawn)
Second: Cc1cccc2nc(-c3cccc(-c4cccc(CNCc5cccc(N)c5)c4)c3)[nH]c12
The XC50 of the first is 2.1-fold higher: 1120 nM for the first, 543 nM for the second.

`Cc1ccc(NC(=O)Nc2ccc(S(=O)(=O)c3ccc(NC(=O)Nc4ccc(C)c(Cl)c4)cc3)cc2)cc1Cl` and `O=[N+]([O-])c1ccc(Nc2nc(N/N=C/c3ccc(-c4ccc([N+](=O)[O-])cc4)o3)nc(Nc3ccccc3)n2)cc1` are within 1.5-fold of each other in XC50: 754 nM for the first, 640 nM for the second.

First: OC1=C2C(=Nc3ccccc3SC2c2ccccc2)c2ccccc21 (stereo not drawn)
Second: CN(C)CC(O)C(c1ccccc1)c1ccc(Cl)cc1 (stereo not drawn)
The XC50 of the first is 6.7-fold higher: 325 nM for the first, 48.4 nM for the second.

Going from `N=C(N)c1ccc(-c2cc(-c3cccc(C(=N)N)c3)on2)cc1` to `Cc1ccc2[nH]c(C)cc(=NN=Cc3ccc(Cl)cc3)c2c1`, the XC50 rises from 13.8 nM to 992 nM (72-fold).

Going from `CC1CCN(c2nc(C(=O)Nc3ccc(F)cc3C(F)(F)F)c(C(C)C)s2)CC1` to `O=C(NC1CCC(N2CCC(c3ccccc3C(F)(F)F)CC2)CC1)c1cc2ccccc2[nH]1` (stereo not drawn), the XC50 rises from 229 nM to 521 nM (2.3-fold).

Going from `NC[C@H](CC1CCCCC1)NC(=O)c1ccc(-c2ccnc3[nH]ccc23)s1` to `CCc1cn2c3c(cc(C(=O)N[C@@H](Cc4ccccc4)[C@H](O)CNC4CCCC4)cc13)N(C)S(=O)(=O)CC2`, the XC50 falls from 950 nM to 46.9 nM (20-fold).

Compared with `O=C(O)/C=C/c1cccc(F)c1F`, `O=C(NCCCN1CCCC1=O)NCc1ccccc1` is 8.5-fold higher in XC50: 96.1 nM for the first, 816 nM for the second.

For `Cc1cc(N2CCCCC2)nc2ccc(NC(=O)c3cc(=O)c4ccccc4o3)cc12`, the XC50 was 716 nM.
